From patent US9840481B2, “Allosteric modulators of nicotinic acetylcholine receptors” (MERCK SHARP & DOHME CORP., priority 2016, dated 2017)
pEC50: −log10 of the molar value. Where two headings read alike, the source gives them in different places.

Molecular target: T1, human α7 nAChR stably expressed in a HEK cell line (with human RIC-3) (Homo sapiens, UniProt P36544)
T1 construct: PrecisION hnAChR α7/RIC-3
Experiment: Automated patch-clamp electrophysiology functional assay (Assay A), IonFlux HT, whole-cell population patch
Type: cell-based
Procedure: The α7 nAChR positive allosteric modulator (PAM) activity of the present compounds may be tested using assays known in the art. The α7 nAChR PAMs described herein have activities in an automated patch-clamp electrophysiology functional assay as described in the examples. The assay was performed using the IonFlux HT in a whole-cell, population patch configuration. See Golden et al. Assay Drug Dev. Technol. (2011) 9:608-619. The compounds were assessed for their ability to modulate the function of the human α7 nAChR stably expressed in a HEK cell line both in the presence, and in the absence of the natural α7 agonist acetylcholine. By performing a series of such measurements at different concentrations, the effective concentration of the α7 nAChR PAMs (EC50) was determined. See Spencer et al. Assay Drug Dev. Technol. (2012) 10:313-324.
Direct activation of α7 (agonism), and potentiation of 5 acetylcholine-evoked α7 currents was determined as follows:
Automated Patch-Clamp Electrophysiology Functional Assay (Assay A)
Automated patch-clamp electrophysiology was performed using the IonFlux HT (Fluxion Biosciences Inc., San Francisco, Calif.) in the whole-cell, population patch configuration. Test compounds were assessed for their ability to modulate the function of the α7 nicotinic acetylcholine receptor both in the presence, and in the absence of the natural α7 agonist acetylcholine. A HEK cell line stably expressing both human RIC-3 and human α7 (PrecisION hnAChR α7/RIC-3, Eurofins Pharma, St. Charles, Mo.) was cultured in 175 cm^2 triple-layer tissue culture flasks to no more than 90% confluency in DMEM/F-12 growth media supplemented with 10% heat-inactivated fetal bovine serum, 1% non-essential amino acids, 0.625 μg/mL Puromycin, and 400 μg/mL Geneticin. Immediately prior to assay, cells were detached by first aspirating growth media, rinsing with Dulbecco's phosphate buffered saline, and then adding 10 mL of Accutase (Innovative Cell Technologies, San Diego, Calif.) to the flask and then incubating at 37° C. for 5 minutes. Detached cells were then recovered by the addition of 40 mL of CHO-serum-free media supplemented with 25 mM HEPES, and rocked gently in a 50 mL conical tube for 20 minutes prior to patch-clamp assay. After recovery, cells were pelleted by centrifugation at 1,000 RPM for 1 minute in a compact bench top centrifuge; recovery media was aspirated and cells were resuspended in external recording solution (150 mM NaCl, 5 mM KCl, 2 mM CaCl2, 1 mM MgCl2, 10 mM HEPES, 12 mM dextrose) to a density of 5.0×10^6 cells/mL. The cell suspension was added to the cell inlet wells on an IonFlux HT population patch plate which had previously been rinsed and primed with deionized H2O. Test compounds were serially diluted in DMSO and then resuspended to the final test concentration in external recording solution, with, or without […] acetylcholine added to the external recording solution; test compounds were then transferred to the IonFlux HT population patch plate. Internal recording solution (110 mM TrisPO4, 28 mM TrisBase, 0.1 mM CaCl2, 2 mM MgCl2, 11 mM EGTA, 4 mM MgATP) was added to the internal recording solution inlet wells on the IonFlux HT patch plate previously loaded with cells and test compounds, and the plate loaded into the IonFlux HT instrument. A protocol was executed on the IonFlux HT to trap the cells, break into the cells, and establish the whole-cell recording configuration; cells were voltage-clamped at a holding potential of −60 mV for the duration of the experiment, all experiments were conducted at room temperature, and the IonFlux HT injection pressure was 8 psi for solution applications. Upon establishing the whole-cell configuration, external recording solution was perfused into the recording chambers for 120 seconds and then 40 μM acetylcholine was applied for 1 second and immediately washed off with external recording solution for 60 seconds. […]

[1] = automated patch-clamp electrophysiology functional assay (Assay A), potency class by EC50, read-out: α7 nAChR Potency
[2] = electrophysiology EC50, HEK cells expressing human α7/RIC-3, 40 μM acetylcholine, holding potential −60 mV, room temperature, read-out: α7 nAChR EC50

T1 sequence (P36544 23-502): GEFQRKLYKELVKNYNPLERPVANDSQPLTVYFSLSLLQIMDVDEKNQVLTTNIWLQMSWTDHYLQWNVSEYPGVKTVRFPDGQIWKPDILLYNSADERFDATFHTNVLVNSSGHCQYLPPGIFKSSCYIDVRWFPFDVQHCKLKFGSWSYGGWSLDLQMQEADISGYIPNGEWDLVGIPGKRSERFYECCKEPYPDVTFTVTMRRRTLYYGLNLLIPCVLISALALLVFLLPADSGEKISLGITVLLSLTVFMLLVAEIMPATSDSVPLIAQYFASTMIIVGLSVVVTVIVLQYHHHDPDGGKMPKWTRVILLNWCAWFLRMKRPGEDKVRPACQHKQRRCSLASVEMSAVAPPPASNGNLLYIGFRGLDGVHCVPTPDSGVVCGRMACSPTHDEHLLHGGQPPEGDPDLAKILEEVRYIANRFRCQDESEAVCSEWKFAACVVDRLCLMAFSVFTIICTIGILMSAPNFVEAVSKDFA

| pEC50 [1] | pEC50 [2] | Structure (SMILES) |
| --- | --- | --- |
| 5.30 to 6.30 | – | CC1(C)[C@@H](c2ccc(S(N)(=O)=O)cc2)[C@@H]1c1noc(C2(c3cnccn3)CC2)n1 [Example I12] |
| 5.30 to 6.30 | – | CC1(C)[C@H](c2ccc(S(N)(=O)=O)cc2)[C@H]1c1cnn(C2CCCC2)c1 [Example L8] |
| ≥ 7.00 | 7.06 | NS(=O)(=O)c1ccc([C@@H]2C[C@H]2c2nsc(-c3cccc(F)c3)n2)cc1 [Example L10] |
| 6.30 to 7.00 | 6.33 | NS(=O)(=O)c1ccc([C@@H]2[C@@H](c3nc(-c4cccc(F)c4)no3)C2(Cl)Cl)cc1 (relative stereo) [Example 36, 4-{trans-2,2-Dichloro-3-[3-(3-fluorophenyl)-1,2,4-oxadiazol-5-yl]cyclopropyl}benzenesulfonamide] |
| 5.30 to 6.30 | 5.36 | Cn1cc([C@H]2[C@H](c3ccc(S(N)(=O)=O)cc3)C2(C)C)nc1-c1cccc(F)c1 [Example 35, 4-{(1S,3S)-3-[2-(3-Fluorophenyl)-1-methyl-1H-imidazol-4-yl]-2,2-dimethylcyclopropyl}benzenesulfonamide] |
| 6.30 to 7.00 | 6.92 | CC(C)c1noc([C@H]2[C@H](c3ccc(S(N)(=O)=O)cc3)C2(F)F)n1 [Example D1] |
| ≥ 7.00 | 7.08 | NS(=O)(=O)c1ccc(C2C(c3nc(-c4ccccc4)no3)C23CCCC3)cc1 (single isomer, unassigned) [Example M3] |
| 5.30 to 6.30 | – | CC1(C)[C@@H](c2ccc(S(N)(=O)=O)cc2)[C@@H]1c1cn(-c2ccccc2)nn1 [Example L7] |
| 6.30 to 7.00 | 6.37 | CC(C)c1noc([C@@H]2C[C@H]2c2ccc(S(N)(=O)=O)cc2)n1 [Example D11] |
| 5.30 to 6.30 | 6.29 | CC1(C)[C@@H](c2ccc(S(N)(=O)=O)cc2)[C@@H]1c1noc(-c2ccc(F)cc2Cl)n1 [Example H2] |
| ≥ 7.00 | 7.01 | Cc1nc([C@@H]2C[C@H]2c2ccc(S(N)(=O)=O)cc2)sc1-c1ccccc1 [Example 16, 4-[(1R,2R)-2-(4-Methyl-5-phenyl-1,3-thiazol-2-yl)cyclopropyl]benzenesulfonamide] |
| 5.30 to 6.30 | – | CC1(C)[C@@H](c2ccc(S(N)(=O)=O)cc2)[C@@H]1c1noc(-c2nc(-c3ccc(F)cc3)c[nH]2)n1 [Example I17] |
| 4.30 to 5.30 | 5.17 | CC1(C)[C@@H](c2ccc(S(N)(=O)=O)cc2)[C@@H]1c1noc(C2CCC(O)CC2)n1 (some centres unmarked) [Example I29] |
| 5.30 to 6.30 | – | CC1(C)[C@@H](c2ccc(S(N)(=O)=O)cc2)[C@@H]1c1noc(Cn2c(=O)oc3ccc(Cl)cc32)n1 [Example I5] |
| 5.30 to 6.30 | 6.19 | CC1(C)[C@@H](c2ccc(S(N)(=O)=O)cc2)[C@@H]1c1cc(-c2ccccc2)no1 [Example L4] |
| 5.30 to 6.30 | 6.10 | NS(=O)(=O)c1ccc([C@@H]2C[C@H]2c2nc(-c3cncc(F)c3)no2)cc1 [Example D12] |
| 5.30 to 6.30 | 5.85 | NS(=O)(=O)c1ccc([C@@H]2C[C@H]2c2noc(-c3cncc(F)c3)n2)cc1 [Example I36] |
| 5.30 to 6.30 | 5.70 | CC1(C)[C@@H](c2ccc(S(N)(=O)=O)cc2)[C@@H]1c1ncc(-c2ccccc2)s1 [Example 17, 4-[(1S,3S)-2,2-Dimethyl-3-(5-phenyl-1,3-thiazol-2-yl)cyclopropyl]benzenesulfonamide] |
| 4.30 to 5.30 | – | COc1ccc(Cl)cc1-c1noc([C@H]2[C@H](c3ccc(S(N)(=O)=O)cc3)C2(C)C)n1 [Example C1] |
| 5.30 to 6.30 | – | NS(=O)(=O)c1ccc([C@@H]2C[C@H]2c2nc(-c3cnccc3C(F)(F)F)no2)cc1 [Example D25] |

| pEC50 [1] | pEC50 [2] | Structure (SMILES) |
| --- | --- | --- |
| 4.30 to 5.30 | 5.11 | Cc1ncccc1-c1noc([C@H]2C[C@@H]2c2ccc(S(N)(=O)=O)cc2)n1 [Example B6] |
| ≥ 7.00 | 7.02 | CC1(C)[C@@H](c2ccc(S(N)(=O)=O)cc2)[C@@H]1c1nc(C2CC(F)(F)C2)no1 [Example D18] |
| 6.30 to 7.00 | – | Cc1ccccc1-c1noc([C@@H]2C[C@H]2c2ccc(S(N)(=O)=O)cc2)n1 [Example C17] |
| 5.30 to 6.30 | 5.49 | CC(C)(C)c1coc([C@@H]2[C@@H](c3ccc(S(N)(=O)=O)cc3)C2(C)C)n1 [Example J4] |
| 5.30 to 6.30 | 6.11 | COc1ccc(Cl)cc1-c1noc([C@@H]2C[C@H]2c2ccc(S(N)(=O)=O)cc2)n1 [Example 19, 4-{(1R,2R)-2-[3-(5-Chloro-2-methoxyphenyl)-1,2,4-oxadiazol-5-yl]cyclopropyl}benzenesulfonamide] |
| 5.30 to 6.30 | 5.89 | CC1(C)[C@@H](c2ccc(S(N)(=O)=O)cc2)[C@@H]1c1noc(-c2cnc(SCC(F)(F)F)o2)n1 [Example I18] |
| 5.30 to 6.30 | 5.64 | CC1(C)[C@@H](c2ccc(S(N)(=O)=O)cc2)[C@@H]1c1nc(-c2cncc(C(F)(F)F)c2)no1 [Example D17] |
| 6.30 to 7.00 | 6.80 | CC1(C)C(c2ccc(S(N)(=O)=O)cc2)C1c1cc(C2CCCC2)on1 (stereo not drawn) [Example 34, 4-(trans-3-(5-Cyclopentylisoxazol-3-yl)-2,2-dimethylcyclopropyl)benzenesulfonamide] |
| 6.30 to 7.00 | 6.46 | NS(=O)(=O)c1ccc([C@@H]2C[C@H]2c2ncc(C3CC3)o2)cc1 [Example K5] |
| 5.30 to 6.30 | 6.04 | CC1(C)[C@H](c2ccc(S(N)(=O)=O)cc2)[C@H]1c1cn(-c2ccccc2)nn1 [Example 12, 4-[(1R,3R)-2,2-Dimethyl-3-(1-phenyl-1H-1,2,3-triazol-4-yl)cyclopropyl]benzenesulfonamide] |
| 5.30 to 6.30 | 5.96 | CC1(C)[C@H](c2ccc(S(N)(=O)=O)cc2)[C@H]1c1nc(-c2cccc(F)c2)no1 [Example A10] |
| 6.30 to 7.00 | 6.92 | CC1C(c2ccc(S(N)(=O)=O)cc2)C1c1nc(-c2ccccc2)no1 (single isomer, unassigned; diastereomer 4) [Example 22, 4-(2-Methyl-3-(3-phenyl-1,2,4-oxadiazol-5-yl)cyclopropyl)benzenesulfonamide, diastereomer 4] |
| 5.30 to 6.30 | 5.51 | CC1(C)[C@@H](c2ccc(S(N)(=O)=O)cc2)[C@@H]1c1noc(-c2cc(C(F)(F)F)c3ccccc3n2)n1 [Example I13] |
| 5.30 to 6.30 | – | CC1(C)[C@H](c2ccc(S(N)(=O)=O)cc2)[C@H]1c1nnc(-c2cc(F)ccc2C(F)(F)F)o1 [Example F2] |
| 6.30 to 7.00 | – | CC1(C)[C@@H](c2ccc(S(N)(=O)=O)cc2)[C@@H]1c1noc(C2CCCCC23CC3)n1 (some centres unmarked) [Example I27] |
| 5.30 to 6.30 | 5.92 | CC1(C)[C@H](c2ccc(S(N)(=O)=O)cc2)[C@H]1c1nc(-c2ccccc2F)co1 [Example J1] |
| 5.30 to 6.30 | 5.36 | CC1(C)[C@@H](c2ccc(S(N)(=O)=O)cc2)[C@@H]1c1noc(-c2c[nH]c(C3CC3)n2)n1 [Example I8] |
| 5.30 to 6.30 | – | CC1(C)[C@H](c2ccc(S(N)(=O)=O)cc2)[C@H]1c1nnc(-c2c(F)cccc2F)o1 [Example F1] |
| 6.30 to 7.00 | 6.80 | NS(=O)(=O)c1ccc([C@@H]2C[C@H]2c2nc(-c3ccc(F)cc3F)no2)cc1 [Example C13] |
| 5.30 to 6.30 | – | CC1(C)[C@H](c2ccc(S(N)(=O)=O)cc2)[C@H]1c1nc(-c2cncc(F)c2)no1 [Example B2] |
